Results: US20210276960A1, “INHIBITORS OF TISSUE TRANSGLUTAMINASE 2 (TG2) AND USES THEREOF” (Northwestern University, priority 2020, published 2021)

How the values were obtained:
[1] = test system: SKOV3 cells adhesion to FN; experiment: Solid phase adhesion assay to FN, SKOV3; assay type: cell-based; conditions: FN 5 μg/mL, FIG. 2E
Procedure: Cells labeled with calcein AM (Life Technologies, #L3224) were seeded at a density of 4×10^4 cells in 96-well plates pre-coated with FN (5 μg/mL, Sigma, #F1141), and blocked using 1% BSA (Sigma, #A9647) in PBS in the presence of selected compounds diluted at the specified concentrations, in serum free media. After 45 minutes, unattached cells were washed using PBS containing 1 mM MgCl2(Sigma, #M8266) and adherent cells were quantified in a SpectraMaxGeminiXS fluorescence plate reader (Molecular Devices, Palo Alto, Calif.) at 530 nm wavelength. Experiments were performed inquadruplicate and repeated at least twice.

[2] = molecular target: T1, His-tagged TG2 / biotinylated FN42 interaction (Homo sapiens, UniProt P21980); experiment: ELISA of the TG2-FN interaction; assay type: binding; conditions: 10 μM
T1 construct: made in house
T1 sequence (P21980 1-687): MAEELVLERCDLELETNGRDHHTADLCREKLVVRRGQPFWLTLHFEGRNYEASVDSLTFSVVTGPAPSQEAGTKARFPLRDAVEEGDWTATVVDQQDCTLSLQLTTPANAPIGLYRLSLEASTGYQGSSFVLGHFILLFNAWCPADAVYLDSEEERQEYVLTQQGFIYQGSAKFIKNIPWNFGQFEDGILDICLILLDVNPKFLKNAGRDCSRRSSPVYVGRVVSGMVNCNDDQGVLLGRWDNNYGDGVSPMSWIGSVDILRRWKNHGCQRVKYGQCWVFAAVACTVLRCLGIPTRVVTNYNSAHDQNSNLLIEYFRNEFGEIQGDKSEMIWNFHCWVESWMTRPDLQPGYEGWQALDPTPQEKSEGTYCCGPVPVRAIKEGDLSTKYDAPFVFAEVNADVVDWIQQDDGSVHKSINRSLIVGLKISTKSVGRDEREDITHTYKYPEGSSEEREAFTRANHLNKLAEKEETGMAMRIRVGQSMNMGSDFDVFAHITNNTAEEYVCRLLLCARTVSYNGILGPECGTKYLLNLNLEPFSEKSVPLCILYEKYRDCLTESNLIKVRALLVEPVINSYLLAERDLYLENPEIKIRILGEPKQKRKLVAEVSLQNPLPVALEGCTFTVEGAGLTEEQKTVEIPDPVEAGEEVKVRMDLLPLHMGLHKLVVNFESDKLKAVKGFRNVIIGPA
Procedure: Confirmation using ELISA: An independent ELISA validated inhibition of TG2/FN complex formation by SMIs^11. The ELISA assay measured the binding between His6-TG2 captured to the wells by anti-His antibodies and biotinylated FN42 detectable with streptavidin-HRP (FIG. 12A). […] Selected compounds (at concentrations between 5 and 10 μM) inhibited the ELISA signal by 29.7% to 69.5%^11.
ELISA measured the interaction between recombinant His tagged TG2 (rTG2-His) and the biotinylated 42 kD fragment of FN (FN42) which were expressed and purified, as previously described (Yakubov et al., 2014). Briefly, a mixture of 10 nMrTG2-His and selected SMIs or DMSO was added to 96 well plates pre-coated with monoclonal anti-His antibody (Roche, Indianapolis, Ind.; 1:6000). The mixture was incubated for 1 h at RT with 5 nM biotinylated FN42. After washing, wells were incubated with streptavidin-HRP (Cell Signaling, #3999; 1:2000). The reaction was developed with 3,3′,5,5′tetramethylbenzidine (TMB) substrate (BD Biosciences, #555214) and the optical density at […] was measured by using a BioTek microplate reader (Winooski, Vt., USA). Data shown are means±SEM of two independent experiments (n=6).

[3] = test system: SKOV3 cells adhesion onto LP9 monolayers; experiment: Cell adhesion to LP9 mesothelial monolayers, SKOV3; assay type: cell-based; conditions: 25 μM
Procedure: (§1) LP9 mesothelial cells added to clear-bottom 96-well plate at 12,000 cells/well were grown to confluency over 48 hours (h). OC cells were labeled with calcein AM and seeded at a density of 4×10^4 cells to monolayers of mesothelial cells and incubated for 1 h. Non-adherent cells were removed by washing with PBS.

[4] = test system: OVCAR433 cells adhesion onto LP9 monolayers; experiment: Cell adhesion to LP9 mesothelial monolayers, OVCAR433; assay type: cell-based; conditions: at concentrations >10 μM
Procedure: as §1

SKOV3 cells = experiment: Wound-healing assay, SKOV3; assay type: cell-based; conditions: 8 μM, 24 hours
Procedure: (§2) Wound Healing was Performed in 12-Well Plates Coated with 1 μg/Ml FN (Sigma, #1141) overnight at 4° C. OC cells were plated at a density of 2×10^5 cells/well in media containing 2% FBS. Under these conditions cells adhered on substrate, but cell proliferation was minimized. After 16 hours, the cell monolayer was scraped in straight line. Cell debris was removed and serum free media containing selected SMIs or control was replenished. For consistency during image acquisition, a reference point was marked close to the scratch mark and the plate was imaged under phase-contrast microscope at 0, 2, 6, 12 and 24 hours. Wound closure was assessed as the distance between the wound edges, calculated and quantified using the Image Pro-Express software. The percentage of wound closure was evaluated using the formula […]. The rate of migration (μm/h) of OC cells into the wound space was evaluated as the distance difference between wound edges at 0 and 24 h, divided by 24. The experiments were performed in duplicates.

OVCAR5 cells = experiment: Wound-healing assay, OVCAR5; assay type: cell-based, human; conditions: 8 μM, 24 hours
Procedure: as §2

[5] = test system: FAK phosphorylation in SKOV3 cells; experiment: Western blotting, FAK phosphorylation dose response; assay type: cell-based; conditions: increasing doses (TG53 8 to 16 μM), 2 hours after adhesion to FN
Procedure: FIG. 33. Dose response effects induced by TG2-FN inhibitors on FAK phosphorylation.
Lysates were separated by SDS-PAGE, transferred onto PVDF membranes (Bio-Rad), incubated with primary and secondary antibodies and developed by using SuperSignal™ West Femto Maximum Sensitivity Substrate and Pierce™ ECL Western Blotting Substrate, respectively (Thermo Scientific). Images were obtained by using the ImageQuant LAS 4000 mini-imager (GE Healthcare, Pittsburgh, Pa.). Densitometry analysis was performed using Quantity One software (Bio-Rad) and results were normalized to GAPDH loading controls. DMSO 0 min time point was considered as 1 for comparative analysis.

SKOV3-GFP cells = experiment: In vivo cell attachment to the peritoneum; set-up: species or system mice; conditions: for unattached OC cells recovered from the peritoneal cavity: NSG mice, ip, 10 μg/kg, 2 hours after injection
Solubility assay = assay type: physicochemical; conditions: aqueous buffer, kinetic from dmso stock; pH=7.4 PBS buffer, 2% DMSO
Procedure: Solubility was measured in a 384-well plate using a Synergy HTX plate reader. Starting with a 50 mM DMSO stock solution of test compounds, dilutions were made from 1 to 500 μM final concentrations using acetonitrile, keeping the final DMSO concentration at 2%. UV absorption was measured at 254 nm and absorbance versus concentration was plotted to give a standard curve. A DMSO stock of test compound was also diluted with pH=7.4 PBS buffer to give a final concentration of 250 μM containing 2% DMSO. This mixture was stirred on a plate shaker for 1 hr after which it was centrifuged at 2500 rpm for 3 min. 50 μL of the supernatant was removed, transferred to a 384-well plate, and the UV absorbance at 254 nm was measured. Absorbance of the test compound in PBS buffer was analyzed with the standard curve to determine solubility.

Row | Structure (SMILES) | OC cells' adhesion to FN [1] | inhibition of rTG2-FN42 interaction relative to TG53 [2] | SKOV3 cell binding to the mesothelial layer [3] | OVCAR433 adhesion to the LP9 layer [4] | motility (scratch repair) (SKOV3 cells) | motility (scratch repair) (OVCAR5 cells) | FAK phosphorylation [5] | unattached OC cells recovered from the peritoneal cavity (SKOV3-GFP cells) | unattached OC cells recovered from the peritoneal cavity (SKOV3-GFP cells; listed as MT6) | adhesion of cancer cells to the peritoneum (SKOV3-GFP cells; nude mice, i.p., 2 hours) | solubility at 1 h (Solubility assay)
1 | COc1cccc(C(=O)Nc2ccc(Nc3nc(C)cc(N(C)C)n3)cc2)c1 [MT-2] | potently blocked | – | – | – | – | – | – | – | – | – | –
2 | Cc1cc(N(C)C)nc(Nc2ccc(NC(=O)c3ccc(Cl)c(Cl)c3)cc2)n1 [MT-3] | – | slightly more potently than TG53 | – | – | – | – | – | – | – | – | –
3 | Cc1cc(N(C)C)nc(Nc2ccc(NC(=O)c3ccc4ccccc4c3)cc2)n1 [MT-5] | potently blocked | slightly more potently than TG53 | significantly decreased | dose-dependent inhibitory effect | inhibited | inhibited | dose-dependent inhibition | – | – | – | –
4 | Cc1cc(N(C)C)nc(Nc2ccc(NC(=O)c3cccc(Br)c3)cc2)n1 [MT-6] | potently blocked | slightly more potently than TG53 | – | dose-dependent inhibitory effect | inhibited | inhibited | – | attached less efficiently | Increased numbers | prevented the adhesion | 6.4 µM
